Activity calls are given as the source filed them. No cut-off for these calls is given here. Starred links: 1 amine or outer side, 2 acyl side, 3 side chain; linkers in the order of their positions; H or OH if unused. Positions of bridges follow the written chain, without caps; N, C: chain ends. Non-standard residues stand in square brackets, D forms with d. Residues, ends and D or L forms follow the SMILES beside them. ξ: configuration not given here. X1 = NC(CC(=O)[*:1])C(=O)[*:2]; ξOrn = NCCCC(N)C(=O)O; Nlys = NCCCCNCC(=O)O; ξK = NCCCCC(N)C(=O)O

The nature of series [1]: Binding affinity to His-tagged HIV-1 integrase C56S, W131D, F185K and […] mutant by fluorescence anisotropy. More on the design: species or system Human immunodeficiency virus 1. (In general: In fluorescence polarisation assays a small probe gives low polarisation when free and higher when bound to something large.)
In series [2] the test system is Human immunodeficiency virus 1. Description: Inhibition of His-tagged HIV-1 integrase C56S, W131D, F185K and […] mutant at 20 uM by fluorescence anisotropy.
Series [3] relates to Human immunodeficiency virus 1. Put plainly: Antiviral activity against wild type HIV1 infected in human H9 cells assessed as p24 protein expression pre-incubated with cells for 2 hrs at 12.5 uM measured after 6 days post infection using multiple dose study wherein additional dose was added every 2 days. It counts as functional. The conditions noted are these: for inhibition at 12.5 µM: Human immunodeficiency virus 1, H9.

In series [4] the test system is Human immunodeficiency virus 1. Put plainly: Antiviral activity against wild type HIV1 infected in human H9 cells assessed as p24 protein expression pre-incubated with cells for 2 hrs at 12.5 uM measured after 8 days post infection using multiple dose study wherein additional dose was added every 2 days. The note with it: for inhibition at 12.5 µM: Human immunodeficiency virus 1, H9. It counts as functional.

Series [5] is described as follows: Stability in trypsin and chymotrypsin extract assessed as duration showing initiation of compound degradation at 37 degC by mass spectrometry. It counts as ADME.
In series [6] the test system is Human immunodeficiency virus 1. Put plainly: Antiviral activity against wild type HIV1 infected in human H9 cells assessed as p24 protein expression pre-incubated with cells for 2 hrs at 12.5 uM measured after 6 days post infection using single dose study. Format: functional. The conditions noted are these: for inhibition at 12.5 µM: Human immunodeficiency virus 1, H9.

Series [7] concerns Human immunodeficiency virus 1. Put plainly: Antiviral activity against wild type HIV1 infected in human H9 cells assessed as p24 protein expression pre-incubated with cells for 2 hrs at 12.5 uM measured after 8 days post infection using single dose study. It counts as functional. The conditions noted are these: for inhibition at 12.5 µM: Human immunodeficiency virus 1, H9.

Consider `CC[C@H](C)[C@@H]1NC(=O)[C@H](CCCCN)NC(=O)[C@H](CC(C)C)NC(=O)[C@H](CO)NC(=O)[C@H](CC(N)=O)NC(=O)[C@H](Cc2c[nH]c3ccccc23)NC(=O)CC(N)C(=O)NCCCCN(CC(N)=O)C(=O)[C@H](C(C)C)NC(=O)[C@H](CC(=O)O)NC(=O)[C@H](CC(C)C)NC(=O)[C@H](CC(N)=O)NC(=O)[C@H](CC(=O)O)NC1=O` (stereo partly drawn) (WNSLKIDNLDV[Nlys]-NH2; linker N-12 via X1), for which the equilibrium dissociation constant (Kd) (as a rule, the constant that tells how readily two partners part at equilibrium) in series [1] turned out to be 5 µM. Besides, the inhibition – broadly, the drop in the measured response relative to a control, in per cent – in series [2] was found to be 90%. In addition, the inhibition result in series [3] and in series [4] was “Active” throughout. Moreover, the Stability in series [5] is recorded as 150 min. For the same compound, the inhibition at 12.5 µM in series [6] and in series [7] was 90% in each case.
Regarding `CC[C@H](C)[C@@H]1NC(=O)[C@H](CCCCN)NC(=O)[C@H](CC(C)C)NC(=O)[C@H](CO)NC(=O)[C@H](CC(N)=O)NC(=O)[C@H](Cc2c[nH]c3ccccc23)NC(=O)CC(N)C(=O)NCCCCC(C(N)=O)NC(=O)[C@H](C(C)C)NC(=O)[C@H](CC(=O)O)NC(=O)[C@H](CC(C)C)NC(=O)[C@H](CC(N)=O)NC(=O)[C@H](CC(=O)O)NC1=O` (stereo partly drawn) (WNSLKIDNLDV[ξK]-NH2; linker N-12 via X1), in series [1], the Kd was 2.5 µM. For the same compound, the inhibition in series [2] came out at 55%. Further, the inhibition at 12.5 µM in series [3] amounted to 85%; in series [4], 85%; in series [6], 80%; in series [7] it was 65%. The Stability in series [5] is 150 min.
In series [1], `CC[C@H](C)[C@@H]1NC(=O)[C@H](CCCCN)NC(=O)[C@H](CC(C)C)NC(=O)[C@H](CO)NC(=O)[C@H](CC(N)=O)NC(=O)[C@H](Cc2c[nH]c3ccccc23)NC(=O)CC(N)C(=O)NCCCC(C(N)=O)NC(=O)[C@H](C(C)C)NC(=O)[C@H](CC(=O)O)NC(=O)[C@H](CC(C)C)NC(=O)[C@H](CC(N)=O)NC(=O)[C@H](CC(=O)O)NC1=O` (stereo partly drawn) (WNSLKIDNLDV[ξOrn]-NH2; linker N-12 via X1) registered a dissociation constant (Kd) of 2 µM. The same compound displayed an inhibition in series [2] of 50%. The inhibition at 12.5 µM in series [3] worked out at 40%; in series [4], 40%; in series [6], 25%; in series [7] it was 25%. The Stability in series [5] came out at 150 min.
In the case of H-WNSLKIDNLDV-OH, the dissociation constant Kd in series [1] worked out at 5.1 µM. In series [2], this compound showed an inhibition of 83%. In addition, the inhibition entry in series [3] and in series [4] was “Active” throughout. Besides, the Stability in series [5] is on record as 30 min. Also, the inhibition result in series [6] and in series [7] was “inactive” each time.

The record behind these values is ChEMBL document CHEMBL2016519, “A comparative study of backbone versus side chain peptide cyclization: application for HIV-1 integrase inhibitors” (Bioorg Med Chem, 2012).
